These results are taken from PubChem BioAssay (NCI).

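Test compounds were applied to cells in 96-well plates for 48 hours at 5 doses. GI50: concentration for 50% inhibition of growth. TGI: concentration producing complete growth inhibition.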

Assay in all cases: growth of human tumour cells (NCI), 48 h
In assay [1] the test system is 786-0 renal.
The subject of assay [2] is ACHN renal.
The subject of assay [3] is CAKI-1 renal.
For assay [4], the system named is HL-60(TB) leukemia.
Assay [5] deals with HOP-92 NSCLC.
In assay [6] the test system is MALME-3M melanoma.
Assay [7] has as its system OVCAR-4 ovarian.
Assay [8] relates to OVCAR-8 ovarian.
Assay [9] relates to RPMI-8226 leukemia.

As to `N=C1C=C(N)C(=O)c2[nH]c(=O)ccc21`, the TGI in [1] was determined as 3.48 µM; in assay [2], 3.1 µM; in assay [3], 13 µM; in assay [4], 4.87 µM; in [5], 3.58 µM; in [6] it was 6.19 µM. In addition, the TGI in [7] came out at 2.74 µM.

`COC(OC)c1cc2c(cc1C(=O)[C@@]13CCC[C@@H]1NC(=O)O3)OCO2`: the TGI in [1], in assay [2], in assay [3], in assay [4], in assay [5] and in assay [6] was more than 100 µM in each case. For the same compound, the TGI in assay [7] and in [8] was more than 100 µM each time.

For the compound `C=[CH][Sn]([CH]=C)([O]c1cccc2cccnc12)[O]c1cccc2cccnc12`, the GI50 was 3.31 µM in assay [1]; 3.26 µM in assay [2]; 6.73 µM in assay [3]; 0.619 µM in assay [4]; 6.52 µM in [5]; 3.35 µM in assay [6]. For the same compound, the GI50 in assay [7] was 1.38 µM; in assay [8], 3.76 µM; in [9], 0.877 µM. For the same compound, the TGI in [1] came to 9.29 µM; in [2], 14.1 µM; in [3], 22.8 µM; in [4], 2.91 µM; in assay [5] it was 19.5 µM; in [6] it was 10.3 µM. Further, the figures for the TGI in assay [7], in assay [8] and in assay [9] were 4.37 µM, 18.2 µM and 4.71 µM, respectively.

For the compound `CCOc1ccc(C(CN2CCOCC2)C(C)=O)cc1OC` (stereo not drawn), the TGI in assay [1] was 15.7 µM; in assay [2], 27.3 µM; in [3] it was 23.4 µM; in assay [4], 17 µM; in [5], 35.7 µM; in assay [6], 37.5 µM. The TGI was 33.3 µM in assay [7], 37.7 µM in [8] and 83.5 µM in assay [9].

On to `Cc1nc(-n2nc(-c3ccccc3)cc2-c2ccccc2)sc1C(/C=C/c1ccc([N+](=O)[O-])cc1)=N/NC(=O)c1ccncc1`, for which the TGI in assay [1] was 37 µM; in assay [2], more than 100 µM; in assay [4] it was 36.7 µM; in assay [5], 54.8 µM; in assay [6], more than 100 µM; in [8], more than 100 µM. The TGI in assay [9] was more than 100 µM.

Regarding `CCOc1cc(-c2ccc[nH]2)[nH]c1/C=C1\N=C(C)C(C(=O)OC)=C1C`, the GI50 in assay [1] is 0.0329 µM; in assay [2] it was 0.0344 µM; in assay [3], 0.0331 µM; in assay [4], 0.0235 µM; in assay [5] it was 0.0148 µM; in assay [6], 0.216 µM. Besides, the GI50 in assay [7] is 0.0449 µM; in assay [8] it was 0.0329 µM; in [9], 0.0216 µM. Further, the TGI in assay [1] turned out to be 0.259 µM; in [2], 1.16 µM; in assay [3] it was 0.194 µM; in assay [4], 1.69 µM; in assay [5] it was 0.049 µM; in assay [6], 4.3 µM. The TGI in assay [7] was determined as 1.45 µM; in [8] it was 1.4 µM; in [9], 0.0898 µM.

Take `CC(=O)C1C(=O)N(C(C)C)C[C@@H]2CCC(=O)C[C@H]12` (stereo partly drawn): the TGI in [1], in [3], in assay [4], in [5], in assay [6] and in assay [7] was more than 100 µM in each case. Also, the TGI in assay [8] and in [9] was more than 100 µM in each case.

On to `Cc1cc(Cl)cc2c1NC(=O)C2=O` (tested in a mixture with another compound), for which the TGI in assay [1], in assay [2], in assay [3], in assay [5], in assay [6] and in [7] was more than 100 µM each time. The same compound yielded a TGI in [8] of more than 100 µM.

Turning to `CC1OC(OC2CCC3(C=O)C4CCC5(C)C(C6=CC(=O)OC6)CCC5(O)C4CCC3(O)C2)C(O)C(O)C1O` (stereo not drawn), the TGI in [1] amounted to 3.2e-05 µM; in assay [2] it was 6.36e-05 µM; in [3], 4.15e-05 µM; in assay [4], 0.000107 µM; in [5], 0.000102 µM; in [6], 8.23e-05 µM. Besides, the values for the TGI in assay [7], in assay [8] and in assay [9] were 3.33e-05 µM, 6.21e-05 µM and 0.000124 µM, respectively.

For `S=c1nc(-c2ccnc(-c3nc(=S)[nH][nH]3)c2)[nH][nH]1`, the TGI in assay [1], in assay [2], in [3], in assay [4], in assay [6] and in assay [7] was more than 100 µM in each case. Also, the TGI in assay [8] and in [9] was more than 100 µM each time.

Consider `C/C=C1\C(=O)OC2CCN3CCC(COC(=O)C(C)(O)C(C)C1O)C23` (stereo not drawn), for which the TGI in assay [1], in assay [2], in assay [3], in [4], in assay [5] and in [6] was more than 100 µM in each case. Further, the TGI in assay [7] and in [8] was more than 100 µM each time.

Consider `COc1ccccc1NC(=O)C(CC(C(=O)Nc1ccccc1OC)/C(C)=N/Nc1ccc([N+](=O)[O-])cc1[N+](=O)[O-])/C(C)=N/Nc1ccc([N+](=O)[O-])cc1[N+](=O)[O-]` (stereo not drawn), for which the TGI in assay [1], in assay [2], in assay [3], in assay [4], in assay [5] and in [6] was more than 100 µM throughout. The TGI in [7], in assay [8] and in assay [9] was more than 100 µM in each case.

Regarding `O=C(Nc1cccc(NC(=O)c2cc(=O)c3ccccc3o2)n1)c1cc(=O)c2ccccc2o1`, the TGI in assay [1] was more than 100 µM; in [2], more than 100 µM; in [3] it was more than 100 µM; in [4], more than 100 µM; in assay [5] it was 52.7 µM; in [6] it was more than 100 µM. Further, the TGI in [7] is more than 100 µM; in assay [8], more than 100 µM; in assay [9] it was 81.3 µM.

Turning to `CC(C)C(=O)Oc1cc2c(=O)oc3c(OC(=O)C(C)C)c(OC(=O)C(C)C)cc4c(=O)oc(c1OC(=O)C(C)C)c2c34`, the TGI in assay [1], in assay [2], in assay [3], in [5], in assay [6] and in [7] was more than 100 µM in each case. For the same compound, the TGI in [8] and in assay [9] was more than 100 µM in each case.
